# Assay results: patent US7988972B2, “Immunoreactive peptides from Epstein-Barr virus” (Ortho-Clinical Diagnostics, Inc., priority 1993, dated 2011)
# Assays:
# [1] = tested on: EA reactive antibody (IgG) in infectious mononucleosis (IM) sera; assay: ELISA, EA peptides with EBV infectious mononucleosis sera; assay type: binding, human; details: for ELISA result, peptides with and without extensions: EA positive EBV IM acute serum; for O.D.: 420 nm; for 50.1 ELISA (OD reading): IFA EA <10, OD >0.2 positive
# Method: ELISA. The ELISA for measuring specific antibodies to p17, p50 or to the synthetic peptides was performed as previously described in detail (Luka et al., J. Immunol. Methods, 67:145-156, 1984). Aliquots of different antigen concentrations were diluted in 0.5M Na2CO3 buffer, pH 9.5, added to wells in polystyrene microtiter plates (Linbro) and the plates incubated overnight at 4° C. Following this incubation period, the plates were washed 5× with Tris-HCl, pH 7.4, containing 0.05% Tween 20, 50 mM NaCl and 100 mg per liter albumin (Sigma) and dried for 20 minutes at room temperature. The plates were screened with different anti-EA-R or EA-D antibody positive human sera and the monoclonal antibody to p17 or p50 to identify the optimal concentration of antigen to be used in the serological studies. Alkaline-phosphatase-labelled goat anti-human IgG (Sigma) or goat anti-mouse IgG (Sigma) was used as the indicator system.
# For the testing of human sera for antibodies to native p17, p50 or to the synthetic peptides, sera were diluted 1:10 in ELISA buffer, added in 0.1 ml volumes to wells coated with optimal concentrations of antigen and the plates were incubated for 60 minutes at room temperature. After 4 washes with ELISA buffer, 100 μl of alkaline phosphatase-labelled goat anti-human IgG in ELISA buffer were added to each well and the plates were incubated at room temperature for 1 hour. Following four more washes in buffer, the enzyme reaction was performed by dissolving 1 mg per ml of Sigma alkaline phosphatase substrate in 1M diethanolamine buffer, pH 10.4, containing 1 mM MgCl2 and 0.1 mM ZnCl2, and 100 μl of the mixture was then added to each well. The reaction was allowed to proceed for 30 minutes at 37° C. and then the plates were screened directly with a microplate reader, TITERTEK MULTISKAN MC (Flow), at 420 nm. Readings above 0.1 which was 2× the background noted with antibody-negative sera were considered positive reactions.
# When the entire 50.10 peptide was tested with 1M sera, 24/32 or 75% of the sera contained EA-D reactive antibody (IgG) (Table 4).
# Serological reactivity of EA peptides p17.1 and p50.1 which contained additional amino acids on their amino and carboxy termini was tested on EBV IM acute sera which was EA positive. The ELISA results shown in Table 5 indicate that the additional amino acids improved reactivity for both EA peptides.
# Immunofluorescence assays (IFA) were performed as described by Henle, et al. (Int. J. Cancer, 8:272-282, 1971). Western blot analysis was done by methods commonly used in the art (See for example, Coligan, et al., Current Protocols in Immunology, Wiley Interscience, 1991, Unit 12). Samples of EBV-infected cell lysates (P3HR-1) were tested with human whole antiserum from positive humans (Pearson, et al., Virology, 160:151-161, 1987). A comparison was made between EA serology by IFA, using the EA-D 50.1 peptide antisera, and ELISA serology using 50.1 peptide (see Example 2).
# [2] = tested on: antibodies to peptides 50.10 (EA-D) and 17.1 (EA-R) in sequential sera; assay: IgG ELISA on sequential sera of a patient with acute infectious mononucleosis; assay type: binding, human; details: sera at 1.20 dilution, (+) >0.25
# Source text: The early antigen D-R transition was followed in a patient during a course of acute infectious mononucleosis. Antibodies to peptides 50.10 (EA-D) and 17.1 (EA-R) were detected by ELISAs on specimens collected over a six month duration. […] Therefore, the peptides of the invention are useful for monitoring the course of EBV-associated disease in a patient.
# [3] = tested on: anti-EA antibodies in human sera; assay: Serological reactivity of different sera (VCA-EA-, VCA+EA+, VCA+EA-) with p50.10; assay type: binding
# Method: Serological reactivity of different sera (VCA−EA−, VCA+EA+, VCA+EA−) with the p50.10 synthetic peptide was performed as described in Example 1, according to Pothen, et al., supra.
# [4] = 32 IM sera, values >0.5 positive (O.D. 420 nm)
sequence,measurement,setting,value
"KQKHPKKVKQAFNPL [p50.10, synthetic peptide from 50 Kd early antigen (EA-D) region of EBV]",% Positive,[1]; [4],75%
same,IM sera positive / tested,[1]; [4],24/32
same,"ELISA result, peptides with and without extensions",[1]; sample no. 2241,0.673
same,"ELISA result, peptides with and without extensions",[1]; sample no. 12498,0.342
same,"ELISA result, peptides with and without extensions",[1]; sample no. 12836,0.722
same,SCORE,[1]; IM serum sample no. 2241,+ (Values >0.5 were considered positive (O.D. readings at 420 nm).)
same,SCORE,[1]; IM serum sample no. 11984,+ (Values >0.5 were considered positive (O.D. readings at 420 nm).)
same,O.D.,[1]; IM serum sample no. 11984,0.722
same,SCORE,[1]; IM serum sample no. 12005,− (Values >0.5 were considered positive (O.D. readings at 420 nm).)
same,O.D.,[1]; IM serum sample no. 12005,0.441
same,SCORE,[1]; IM serum sample no. 12288,+ (Values >0.5 were considered positive (O.D. readings at 420 nm).)
same,O.D.,[1]; IM serum sample no. 12288,0.610
same,SCORE,[1]; IM serum sample no. 12407,+ (Values >0.5 were considered positive (O.D. readings at 420 nm).)
same,O.D.,[1]; IM serum sample no. 12407,0.751
same,SCORE,[1]; IM serum sample no. 12409,+ (Values >0.5 were considered positive (O.D. readings at 420 nm).)
same,O.D.,[1]; IM serum sample no. 12409,0.609
same,SCORE,[1]; IM serum sample no. 12418,− (Values >0.5 were considered positive (O.D. readings at 420 nm).)
same,O.D.,[1]; IM serum sample no. 12418,0.382
same,SCORE,[1]; IM serum sample no. 12498,− (Values >0.5 were considered positive (O.D. readings at 420 nm).)
same,SCORE,[1]; IM serum sample no. 12502,− (Values >0.5 were considered positive (O.D. readings at 420 nm).)
same,O.D.,[1]; IM serum sample no. 12502,0.270
same,SCORE,[1]; IM serum sample no. 12587,+ (Values >0.5 were considered positive (O.D. readings at 420 nm).)
same,O.D.,[1]; IM serum sample no. 12587,0.890
same,SCORE,[1]; IM serum sample no. 12600,− (Values >0.5 were considered positive (O.D. readings at 420 nm).)
same,O.D.,[1]; IM serum sample no. 12600,0.323
same,SCORE,[1]; IM serum sample no. 12611,− (Values >0.5 were considered positive (O.D. readings at 420 nm).)
same,O.D.,[1]; IM serum sample no. 12611,0.436
same,SCORE,[1]; IM serum sample no. 12801,+ (Values >0.5 were considered positive (O.D. readings at 420 nm).)
same,O.D.,[1]; IM serum sample no. 12801,0.605
same,SCORE,[1]; IM serum sample no. 12828,+ (Values >0.5 were considered positive (O.D. readings at 420 nm).)
same,O.D.,[1]; IM serum sample no. 12828,0.895
same,SCORE,[1]; IM serum sample no. 12829,+ (Values >0.5 were considered positive (O.D. readings at 420 nm).)
same,O.D.,[1]; IM serum sample no. 12829,0.652
same,SCORE,[1]; IM serum sample no. 12836,+ (Values >0.5 were considered positive (O.D. readings at 420 nm).)
same,SCORE,[1]; IM serum sample no. 12837,+ (Values >0.5 were considered positive (O.D. readings at 420 nm).)
same,O.D.,[1]; IM serum sample no. 12837,1.491
same,SCORE,[1]; IM serum sample no. 12840,+ (Values >0.5 were considered positive (O.D. readings at 420 nm).)
same,O.D.,[1]; IM serum sample no. 12840,0.723
same,SCORE,[1]; IM serum sample no. 12888,+ (Values >0.5 were considered positive (O.D. readings at 420 nm).)
same,O.D.,[1]; IM serum sample no. 12888,0.847
same,SCORE,[1]; IM serum sample no. 12889,+ (Values >0.5 were considered positive (O.D. readings at 420 nm).)
same,O.D.,[1]; IM serum sample no. 12889,1.184
same,SCORE,[1]; IM serum sample no. 12892,+ (Values >0.5 were considered positive (O.D. readings at 420 nm).)
same,O.D.,[1]; IM serum sample no. 12892,0.634
same,SCORE,[1]; IM serum sample no. 12893,+ (Values >0.5 were considered positive (O.D. readings at 420 nm).)
same,O.D.,[1]; IM serum sample no. 12893,0.626
same,SCORE,[1]; IM serum sample no. 12899,+ (Values >0.5 were considered positive (O.D. readings at 420 nm).)
same,O.D.,[1]; IM serum sample no. 12899,0.895
same,SCORE,[1]; IM serum sample no. 12900,− (Values >0.5 were considered positive (O.D. readings at 420 nm).)
same,O.D.,[1]; IM serum sample no. 12900,0.498
same,SCORE,[1]; IM serum sample no. 13075,− (Values >0.5 were considered positive (O.D. readings at 420 nm).)
same,O.D.,[1]; IM serum sample no. 13075,0.252
same,SCORE,[1]; IM serum sample no. 13419,+ (Values >0.5 were considered positive (O.D. readings at 420 nm).)
same,O.D.,[1]; IM serum sample no. 13419,0.678
same,SCORE,[1]; IM serum sample no. 13637,+ (Values >0.5 were considered positive (O.D. readings at 420 nm).)
same,O.D.,[1]; IM serum sample no. 13637,0.886
same,SCORE,[1]; IM serum sample no. 13769,+ (Values >0.5 were considered positive (O.D. readings at 420 nm).)
same,O.D.,[1]; IM serum sample no. 13769,1.307
same,SCORE,[1]; IM serum sample no. 13929,+ (Values >0.5 were considered positive (O.D. readings at 420 nm).)
same,O.D.,[1]; IM serum sample no. 13929,1.031
same,SCORE,[1]; IM serum sample no. 14043,+ (Values >0.5 were considered positive (O.D. readings at 420 nm).)
same,O.D.,[1]; IM serum sample no. 14043,0.631
same,SCORE,[1]; IM serum sample no. 14128,+ (Values >0.5 were considered positive (O.D. readings at 420 nm).)
same,O.D.,[1]; IM serum sample no. 14128,0.693
same,SCORE,[1]; IM serum sample no. 14131,+ (Values >0.5 were considered positive (O.D. readings at 420 nm).)
same,O.D.,[1]; IM serum sample no. 14131,0.530
same,50.1 ELISA (OD reading),"[1]; acute EBV IM sample 12502, diluted 1:10, EA-D Western blot positive",0.409
same,50.1 ELISA (OD reading),"[1]; acute EBV IM sample 12840, diluted 1:10, EA-D Western blot positive",0.257
same,50.1 ELISA (OD reading),"[1]; acute EBV IM sample 13769, diluted 1:10, EA-D Western blot positive",1.034
same,IgG ELISA O.D. reading,"[2]; serum no. 9817, May 26, 1988",0.104
same,IgG ELISA O.D. reading,"[2]; serum no. 9820, May 31, 1988",0.094
same,IgG ELISA O.D. reading,"[2]; serum no. 9829, Jun. 07, 1988",0.120
same,IgG ELISA O.D. reading,"[2]; serum no. 9941, Jun. 20, 1988",0.147
same,IgG ELISA O.D. reading,"[2]; serum no. 9983, Jun. 27, 1988",0.817
same,IgG ELISA O.D. reading,"[2]; serum no. 10064, Jul. 18, 1988",0.821
same,IgG ELISA O.D. reading,"[2]; serum no. 10237, Aug. 29, 1988",0.561
same,IgG ELISA O.D. reading,"[2]; serum no. 10271, Sep. 20, 1988",0.100
same,IgG ELISA O.D. reading,"[2]; serum no. 10488, Oct. 21, 1988",0.095
same,IgG ELISA O.D. reading,"[2]; serum no. 10546, Nov. 15, 1988",0.140
same,reactivity with anti-EA antibody negative sera,[3],lack of reactivity
